From US8110577B2, “Histone deacetylase inhibitors” (Queen Mary & Westfield College, priority 2006, dated 2012)
Where two headings read alike, the source gives them in different places.

Tests used:
[1] = biological target: Partially purified HDAC enzyme (liver prep); experiment: HDAC activity assay (MAL deacetylation, HPLC) with partially purified liver HDAC; assay type: biochemical, rat
Text: The activity of compounds as inhibitors of histone deacetylase was investigated using a modified procedure based on a rapid in vitro HDAC activity assay (HDAC mediated deacetylation of an Ω-acetylated lysine (MAL)) as described by Hoffman et al in Nucl. Acids. Res. 27 2057-2058 (1999).
The HDAC substrate N-(-4-methyl-7-coumarinyl)-N-α-(tert-butyloxy-carbonyl)-N-Ω abbreviated as MAL was synthesised as described (Hoffman et al 1999). HDAC inhibitors and substrate (MAL) were made up in Hepes buffer (50 mM, pH 7.4). Partially purified HDAC enzyme (liver prep, 100 μL), HDAC inhibitor or Hepes buffer (100 μl), substrate (MAL, 100 μL 5 μg/mL) and assay buffer (100 μL, tris-HCl (10 mM), NaCl (10 mM), MgCl2 (15 mM), EGTA (0.1 mM), 10% (v/v) glycerol, and mercaptoethanol (0.007%)) were incubated at 37° C. for 60 minutes. The reaction was terminated with 100 μl acetonitrile, and MAL and the deacetylated product (ML) were determined in the supernatant.
(§1) Chromatographic separation of MAL and ML was carried out using a 15 cm Apex ODS […] column with acetonitrile/distilled water (40:60), 2% trifluoracetic acid (TFA) v/v mobile phase at a flow rate of 1.2 ml/minute. MAL and ML were quantified by fluorescence detection at excitation/emission wavelengths of 330/395 nm.
(§2) The activity of each inhibitor was assessed at a minimum of 5 non-zero concentrations. MAL and ML peak heights were used to derive the percentage MAL in the mixture as the ration of MAL: MAL+ML.
HDAC inhibitory activity against cell-free HDACs isolated from rat liver was determined using the HPLC method.

[2] = system: Cell-free (CEM cells) HDAC; experiment: Cell-free (CEM cells) HDAC inhibitory activity, fluorescent commercial kit (Upstate Cell Signaling); assay type: biochemical
Text: HDAC inhibitory activity has also been determined using a fluorescent commercial kit method (Upstate Cell Signaling).

[3] = system: acetylated histone H3 in MCF-7 cells; experiment: Histone H3 acetylation in MCF7 cells (protein blot); assay type: cell-based; settings: for histone H3 acetylation with time: FIG. 5; for change in histone H3 acetylation: 2 hour exposure to increasing concentrations, FIG. 4
Protocol: The effect of the compounds on the acetylation of histone H3 was investigated in MCF-7 cells. Briefly cells were treated with a range of concentration of specific inhibitor or different exposure durations. Cells were then lysed and the proteins resolved by polyacrylamide electrophoresis prior to blotting onto a nitrocellulose membrane and staining with an antibody specific for the protein under study (acetylated histone H3) and a control protein (β-actin). As HDAC inhibitors reduce deacetylase activity, treatment of intact cells results in the accumulation of acetylated histones.

[4] = system: MCF7 (breast cancer) tumours; experiment: MCF7 xenograft study in nude mice; assay type: in vivo; settings: 15 day treatment, FIG. 6
Protocol: Xenograft studies were carried out with MCF7 cells implanted under the skin on the flank of female nude mice (5-8 weeks of age). […] Animals also received a 2 mg oestrogen pellet as an implant on the day of tumour implantation. Tumour volumes were determined from measurements of 2 diameters carried out every other day out to day 15 of treatment.

[5] = system: panel of 8 lymphoma cell lines; experiment: Cell viability (ATP) in a panel of 8 lymphoma cell lines; assay type: cell-based; settings: ATP endpoint assay, read-out: EC50 values (range over the panel)
Protocol: (§3) EC50 values for percentage viability (3-day exposure) were determined using 2 different methods, trypan blue staining and an ATP assay. Trypan blue staining relies on the ability of healthy cells with intact membranes to exclude dyes. As cells start to undergo programmed cell death membrane integrity becomes compromised allowing dye entry. The % cells staining positive for trypan blue relative to the total cell number therefore reflects % cell viability (% viability). Non-viable cells also lose the ability to regenerate ATP. A specific ATP assay procedure using a 96-well plate-based approach (Vialite assay, Cambrex, UK) also measures cell viability, expressed relative to the ATP value in the control (untreated) cell population.

[6] = system: MCF7 (breast cancer) cells; experiment: Cell viability, 3-day exposure, MCF7 cells; assay type: cell-based; settings: Homo sapiens, 72 h, 3 day incubation, FIG. 3
Protocol: as §3

[7] = system: HDAC activity in intact CEM cells; experiment: Whole cell HDAC activity assay (MAL) in intact CEM cells; assay type: cell-based; settings: FIG. 2, read-out: HDAC inhibitory values in intact CEM cells
Protocol: Cells were then rapidly washed at 4° C., lysed by sonication, the reaction stopped with acetonitrile, and MAL and the deacetylated product determined in the supernatant by rapid HPLC.
as §1, §2

CEM (leukaemic) cells = experiment: Cell viability / cytotoxic activity, ATP Vialite assay, CEM cells; assay type: cell-based; settings: Homo sapiens, CCRF-CEM
Protocol: as §3
Effects against viable cell number have been determined using the ATP Vialite kit method (Cambrex, UK).

[8] = system: HCT116 (colorectal cancer) cells; experiment: Cell viability, 3-day exposure, HCT116 cells; assay type: cell-based; settings: Homo sapiens, HCT-116, 72 h, 3 day incubation, FIG. 3
Protocol: as §3

[9] = cell-free HDACs isolated from rat liver, HPLC method, different liver preparation than Example 1, read-out: HDAC inhibitory IC50

**Q.** Which IC50 [1, 9] does the source give for `Cc1nsc(C(CCCCCC(=N)NO)C(=O)Nc2ccccc2)n1` (stereo not drawn) [67022,19, 7-(N-Hydroxycarbamimidoyl)-2(3-methyl[1,2,4]thiadiazol-5-yl)heptanoic Acid Phenylamide] here?
**A.** 44.6 ± 5.6 µM

**Q.** What about the IC50 [2] of the same molecule?
**A.** 46.1 ± 12 µM

**Q.** For `Cc1nsc(C(CCCCCC(N)=S)C(=O)Nc2ccccc2)n1` (stereo not drawn) [67022,20, 2-(3-Methyl-[1,2,4]thiadiazol-5-yl)-7-thiocarbamoylheptanoic Acid Phenylamide], which IC50 [1, 9] is on record?
**A.** 318 µM

**Q.** Which “histone H3 acetylation with time” value ([3]; 3 μM SAHA, time periods up to 48 hours) does the source give for `O=C(CCCCCCC(=O)Nc1ccccc1)NO` [SAHA, suberoylanilide hydroxamic acid, reference compound] here?
**A.** acetylation increased up to 6 hours, but had decreased to baseline levels by 24 hours

**Q.** And the “change in histone H3 acetylation” value [3]?
**A.** relatively minor changes in acetylation state at concentrations <1.0 μM

**Q.** And the “effect on tumour growth” value ([4]; daily IP 25 mg/kg in DMSO)?
**A.** not very different to treatment with the DMSO vehicle alone

**Q.** Which results are given for `O=C(CCCCCC(C(=O)Nc1ccccc1)C(=O)Nc1ccccc1)NO` [UCL67022, 2-Phenylcarbamoyl-octanedioic acid 8-hydroxyamide 1-phenylamide]?
**A.** EC50 [5]: 20 to 80 nM; EC50 [6]: 130 nM; IC50 [1, 9]: 0.04 ± 0.009 µM; IC50 ([1]; partially purified rat liver preparation, Example 1, FIG. 1, read-out: HDAC inhibitory activity IC50): 0.05 ± 0.01 µM; IC50 [7]: 110 ± 20 nM; histone H3 acetylation with time ([3]; 0.3 μM UCL67022, time periods up to 48 hours): acetylation continued to increase out to 24 hours, and was still substantially higher than baseline at 48 hours; change in histone H3 acetylation [3]: marked change in histone H3 acetylation at concentrations as low as 0.1 μM; IC50 [2]: 0.086 ± 0.007 µM; EC50 (CEM (leukaemic) cells; 72 h, CEM cells, 3 day incubation, FIG. 3): 60 nM; IC50 (CEM (leukaemic) cells; cytotoxic activity against CEM (leukaemic) cells, viable cell number, ATP Vialite kit, read-out: HDAC inhibitory IC50): 98 ± 42 nM; EC50 [8]: 70 nM; effect on tumour growth ([4]; daily IP dose levels 12.5·M and 6.25·M): appeared to have a clear effect on tumour growth
